Test results: patent publication EP1024807B1, “USE OF THE COMPOUND 2-METHOXYPHENYL-1-METHYL-5P-METHYLBENZOYL-PYRROL-2-ACETAMIDO ACETATE FOR THE PRODUCTION OF AN ANTI-INFLAMMATORY DRUG WITH PREVENTION OF GASTRIC HYPERSECRETION AND RENAL IMPAIRMENT” (MEDOSAN Ricerca S.r.l., priority 1997, dated 1999)
Entries after “also recorded” stand apart in the source; their conditions may differ.

Key:
post-operative pain = experiment: Clinical trials in post-operative pain; format: in vivo, man
Protocol: As reported in Table 14, the analgesic properties of amtolmetin guacyl were tested in postoperative pain with good results. […] The peak effect is obtained only after 2 hours, and it is maintained for 6 hours.

[1] = system: patients with rheumatoid arthritis in the active phase; experiment: Clinical trials in rheumatoid arthritis; format: in vivo, man; settings: 150 patients, 30 days; versus ibuprofen, indomethacin, piroxicam, tolmetin; listed as Amtolmetin guacyl
Source text: Amtolmetin guacyl was compared with ibuprofen, indomethacin, piroxicam and tolmetin.

Cynomolgous monkey = experiment: Chronic oral administration for 52 weeks, gastric damage; format: in vivo
gastric mucosa = experiment: Gastroprotective action in vivo with an H1 receptor inhibitor; parameters: species or system rat; settings: in the presence of an inhibitor of H1 receptors, fig. 17 and 18
Source text: In the in vivo experimentation, evaluated as effect of the product both on gastric mucosal secretion and on the healthy condition of the mucosa itself, it was noted that in the presence of an inhibitor of H1 receptors (therefore a typical antihistamine agent), the gastroprotective effect of amtolmetin guacyl drops out. […] All of this constitutes a precise forewarning of the association of amtolmetin guacyl with H1 receptor inhibiting substances on pain of loss of the gastroprotective properties of the former (fig. 17 and 18).

[2] = system: rat isolated stomach strips; experiment: Gastric motility in isolated stomach strips, acetylcholine and serotonin as agonists; settings: acetilcholine and serotonin as agonists
[3] = Persistence of intact molecule in gastric and intestinal walls; format: in vivo; settings: after oral administration in the rat
Protocol: The presence of the vanilloid radical, essential to the expression of the gastroprotective mechanism, is guaranteed by the prolonged persistence of high amounts of intact amtolmetin guacyl molecule in the gastric and intestinal walls (at least 2 hours after oral administration in the rat).

osteoarthritis = experiment: Clinical trials in osteoarthritis; format: in vivo, man; settings: 550 patients, mean 80 days; versus seven reference NSAIDs; listed as Amtolmetin guacyl
Source text: In this degenerative disease amtolmetin guacyl was compared with diclofenac, diflunisal, flurbiprofen, ibuprofen, ketoprofen, naproxen and tolmetin.

gastric PGE2 = experiment: Effect on gastric PGE2 in the rat; format: in vivo
Source text: Moreover, as with all the NSAIDs currently aveilable, it inhibits gastric PGE2 in the rat, albeit to a lesser degree than ASA (Table 7).

rat [4] = experiment: Chronic oral administration for 52 weeks, gastric damage; format: in vivo
Acute toxicity studies = settings: in vivo
rat [5] = experiment: Carcinogenesis studies, gavage over the life-span; format: in vivo; settings: gavage for a period covering the animal's life-span
H2 receptors = target: T1, H2 receptors (Cavia porcellus, UniProt P47747); experiment: Isolated atrium, histamine stimulation; settings: guinea-pig atrium, fig. 5
T1 construct: using an organ in which only H2 receptors were present (guinea-pig atrium); from tissue; host or cells: guinea-pig atrium
T1 sequence (P47747 whole entry): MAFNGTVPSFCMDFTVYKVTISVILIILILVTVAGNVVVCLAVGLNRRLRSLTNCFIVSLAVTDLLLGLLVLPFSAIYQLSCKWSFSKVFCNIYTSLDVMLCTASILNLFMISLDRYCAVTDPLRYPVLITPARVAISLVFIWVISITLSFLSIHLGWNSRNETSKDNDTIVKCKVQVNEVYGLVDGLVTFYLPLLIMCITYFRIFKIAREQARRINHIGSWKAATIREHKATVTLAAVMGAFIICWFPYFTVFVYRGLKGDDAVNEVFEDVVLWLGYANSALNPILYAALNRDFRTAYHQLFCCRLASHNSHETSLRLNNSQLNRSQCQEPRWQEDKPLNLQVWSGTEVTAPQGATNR
Source text: On the basis of the above series of observations, we decided to study the pharmacological behaviour of a number of widely used NSAIDs (including amtolmetin guacyl) towards the gastric mucosa in the rat, as previously described. […] The first hypothesis was that we were deling with an anti-H2 drug, given the fact that its potency could be compared with that of cimetidine.

platelet aggregation = experiment: Platelet aggregation
Source text: For all of these reasons the drug was expected to induce gastric damage and inhibit platelet aggregation.

Rats = experiment: Adjuvant arthritis (joint diameter and patellar bone mass); format: in vivo; settings: for Swelling Diameter difference (L-R) / Joint diameter (mm) Left / Joint diameter (mm) Right: day 0-3; for Joint diameter (mm) Left / Bone mass (mg) Left: left = arthritic joint; for Joint diameter (mm) Right / Bone mass (mg) Right: right = saline control joint; for % Change: ([left-right]/right)X100; for Bone loss Left-Right / Bone mass (mg) Left / Bone mass (mg) Right: patellar bone
Protocol: The drugs were administered daily by oral gavage for 4 days (day 0-3); piroxicam and MED 15 were dissolved in 5% Gum arabic + 0.01% Tween 80, and administered in a volume of 0.5ml. Piroxicam was administered as 3mg/kg and MED 15 was administered as 25, 50 and 100mg/kg doses. Table 8 bis illustrating dosage regimes. L=left stifle joint, R=Right stifle joint.
Under halothane anaesthesia, rats received 200µg of heat-killed finely ground Mycobactyerium tubercolosis in 25µl (80mg/10ml sterile saline) injected intra-articulary into the left stifle joint. The contralateral joint received 25µl 0.9% sterile saline. Control animals received 25µl of 0.9% sterile saline in both knees. SGE 50µl microsyringes with a volume lock calibrated at 25µl were used with 30G stainless steel needles. Solutions were prepared sterile, and aseptic technique was used throughout, with sterilisation of syringes between groups.
The rats were killed by carbon dioxide suffocation. The body weight was noted and the skin overlying the stifle joints was divided and the joint diameters assessed in mm using Mitutoyo vernier callipers (530-312, 0.02mm).
The patellae were dissected, weighed (Sartorius, 0.01mg) and then immersed in 1ml digestion buffer (see below) to remove soft tissue.
Digestive buffer was prepared fresh to the following formula; disodium hydrogen orthophosphate 20mM, EDTA 1mM and diothiothreitol at 2mM. Papain (EC 3.4.22.2) was added at a concentration of 6U/ml. Each patella was digested in 1ml of digestive buffer at 56°C for 4 hours. The residual paterllar bones were dried (100°C 24 hours) and weighed (Sartorius 0.01mg).
Results are presented as follows: left and right parameter alone, the difference between arthritic and contralateral control joint (left-right); and % difference between arthritic and control joints ([left-right]/right]X100).
Calculations were carried out using the spreadsheet program Lotus 123. Statistical comparisons were made between the absolute differences using INSTAT Mann Whitney unpaired two-tailed statistical test.

rat [6] = experiment: Fertility, embryotoxicity and teratogenicity studies; format: in vivo
[7] = system: extra-articular rheumatism; experiment: Clinical trials in extra-articular rheumatism; format: in vivo, man; settings: 90 patients, 14 days; versus diclofenac, naproxen, piperazine propionate
Source text: In extra-articular rheumatism amtolmetin guacyl was compared with diclofenac, naproxen and piperazine propionate.

Anaesthetized Rat = experiment: Drug safety trials: blood pressure and cardiovascular system; settings: in vivo
Source text: From a toxicological viewpoint the drug offers an excellent torability profile.

rat bone marrow = experiment: Micronucleus test; settings: in vivo

## COc1ccccc1OC(=O)CNC(=O)Cc1ccc(C(=O)c2ccc(C)cc2)n1C [MED 15, 2-methoxyphenyl-1-methyl-5p-methylbenzoylpyrrol-2-acetamido acetate]
post-operative pain; following administration
  time at which the effect is already evaluable: 30 '
post-operative pain; post-operative pain
  antalgic effect: statistically significant
  time the effect is maintained: 6 h
  time to peak effect: 2 h
[1]
  Evaluation of antiphlogistic activity: significantly more rapid and marked anti-inflammatory activity compared to the reference NSAIDs; also recorded: Amtolmetin guacyl demonstrated statistical significant activity more rapid and more marked when compared to the reference NSAIDs in rheumatoid arthritis
Cynomolgous monkey
  gastric damage: absence of gastric damage
Gastric mucosa
  gastroprotective effect: drops out
[2]
  motility: down-regulation of motility
[3]
  persistence of high amounts of intact molecule in the gastric and intestinal walls: at least 2 hours
osteoarthritis
  Evaluation of antiphlogistic activity: statistically significant more rapid and more marked activity; also recorded: Amtolmetin guacyl was more rapid and more active in a statistically significant manner in osteoarthritis compared to the reference NSAIDs
Gastric PGE2; gastric PGE2 versus controls
  %inhibition: 69.9%
Gastric PGE2; gastric tissue, rat, controls 108.7±23.9
  PGE2 (ngtg^Δ tissue)±S.E.: 32.7±8.5 nanograms for gram of tissue
Rat [4]
  gastric damage: absence of gastric damage
Acute toxicity studies
  acute toxicity, tolerability: excellent drug tolerability
Rat [5]
  Carcinogenesis: innocuity
H2 receptors
  interference with the H2 receptors: did not interfere with the H2 receptors
Platelet aggregation
  platelet antiaggregating properties: significant platelet antiaggregating properties
Rats; 25mg/kg daily oral
  Swelling Diameter difference (L-R): 2.22 mm
  Joint diameter (mm) Left: 11.57 mm
  Joint diameter (mm) Right: 9.35 mm
  Bone loss Left-Right: -1.94 mg
  Bone mass (mg) Left: 2.33 mg
  Bone mass (mg) Right: 4.27 mg
Rats; 50mg/kg daily oral
  Swelling Diameter difference (L-R): 2.06 mm
  Joint diameter (mm) Left: 10.95 mm
  Joint diameter (mm) Right: 8.88 mm
  Bone loss Left-Right: -1.69 mg
  Bone mass (mg) Left: 2.49 mg
  Bone mass (mg) Right: 4.18 mg
Rats; 100mg/kg daily oral
  Swelling Diameter difference (L-R): 1.38 mm
  Joint diameter (mm) Left: 10.26 mm
  Joint diameter (mm) Right: 8.88 mm
  Bone loss Left-Right: -1.38 mg
  Bone mass (mg) Left: 2.97 mg
  Bone mass (mg) Right: 4.34 mg
Rats; dose of 100mg/kg
  protective effect against bone loss compared to piroxicam: not significantly different to piroxicam
Rats; joint diameter, 25mg/kg daily oral
  % Change: 24.04%
Rats; joint diameter, 50mg/kg daily oral
  % Change: 23.36%
Rats; joint diameter, 100mg/kg daily oral
  % Change: 15.71%
Rats; patellar bone mass, 25mg/kg daily oral
  % Change: 45.45%
Rats; patellar bone mass, 50mg/kg daily oral
  % Change: 40.55%
Rats; patellar bone mass, 100mg/kg daily oral
  % Change: 31.85%
Rats; patellar bone mass, arthritic groups
  protection against bone loss: dose dependent protective effect
Rat [6]
  fertility, embriotoxicity and teratogenicity: safety
[7]
  Evaluation of antiphlogistic activity: In this indication no significant differences were noted between amtolmetin guacyl and the reference compounds.
Anaesthetized Rat
  effects on blood pressure and on the cardiovascular system: absence of effects
Rat bone marrow
  micronucleus test: absence of amtolmetin guacyl-related damage
